Test results from US8329899B2, “Pyrazole compounds that modulate HSP90 activity” (Synta Pharmaceuticals, Corp., priority 2005, dated 2012).

Tested on: Her2
Test: Degradation of Her2 in BT-474 cells, Method 1 (Western blot)
Format: cell-based, Human
Conditions: 0.5 μM, overnight
Protocol: Human high-Her2 breast carcinoma BT474 (HTB-20), SK-BR-3 (HTB-30) and MCF-7 breast carcinoma (HTB-22) from American Type Culture Collection, Va., USA were grown in Dulbecco's modified Eagle's medium with 4 mM L-glutamine and antibiotics (100 IU/ml penicillin and 100 ug/ml streptomycine; GibcoBRL). To obtain exponential cell growth, cells were trypsinized, counted and seeded at a cell density of 0.5×10^6 cells/ml regularly, every 3 days. All experiments were performed on day 1 after cell passage.
BT-474 cells are treated with 0.5 μM, 2 μM, or 5 μM of 17AAG (a positive control) or 0.5 μM, 2 μM, or 5 μM of a compound of the invention overnight in DMEM medium. After treatment, each cytoplasmic sample is prepared from 1×10^6 cells by incubation of cell lysis buffer (#9803, cell Signaling Technology) on ice for 10 minutes. The resulting supernatant used as the cytosol fractions is dissolved with sample buffer for SDS-PAGE and run on a SDS-PAGE gel, blotted onto a nitrocellulose membrane by using semi-dry transfer. Non-specific binding to nitrocellulose is blocked with 5% skim milk in TBS with 0.5% Tween at room temperature for 1 hour, then probed with anti-Her2/ErB2 mAb (rabbit IgG, #2242, Cell Signaling) and anti-Tubulin (T9026, Sigma) as housekeeping control protein. […]

C=CCNC1=C2C[C@@H](C)C[C@H](OC)[C@H](O)[C@@H](C)/C=C(\C)[C@H](OC(N)=O)[C@@H](OC)/C=C\C=C(/C)C(=O)NC(=CC1=O)C2=O [Compound 17AAG]
degradation of Her2: partial degradation
